According to US4839350A, “Cephalosporin compounds and the production thereof” (Meiji Seika Kaisha, Ltd., priority 1984, dated 1989):

Test: Recovery in urine after oral administration to mice (paper-disc assay)
Format: in vivo, mice of ICR-strain (male)
Conditions: 0.5 mg per mouse, suspension in 0.2% CMC, urine to 4 hours, molar % as free carboxylic acid form, average of three mice, E. coli K-12 8236 bioassay, read-out: Rate of recovery of the test compound in urine
Text: The new cephalosporin compound of this invention as orally administered is easily absorbed through the intestines by a living animal and maintains its antibacterial activity to a substantial extent in the body of the animal until it is excreted in the urine of the animal, and this may be observed by determining the remaining amount of the cephalosporin compound of this invention which can be recovered in the urine without receiving a substantial degradation of the compound in vivo. Some tests were made to evaluate the amount of the cephalosporin compound of this invention which can be recovered as the antibacterially active compound from the urine after it was orally given to mice.
To mice of ICR-strain (male, 4-weeks-aged, three in each group) was orally administered the compound under test identified below, at a dosage of the compound of 0.5 mg per mouse. The compound under test was given as a suspension of the test compound in a solution of 0.2% carboxymethylcellulose (CMC) in water. By the end of 4 hours after the administration of the test compound, all the amounts of the urine excreted by the treated mice were collected together, and the total quantity of the cephalosporin compound of this invention (as the free carboxylic acid form) in the urine was determined according to a paper-disc assay method using Escherichia coli K-12 8236 as the assaying strain. […]

dose excreted at 4 h | SMILES
24% | CO/N=C(\C(=O)NC1C(=O)N2C(C(=O)OCOC(=O)C(C)(C)C)=C(/C=C\c3scnc3Cl)CSC12)c1csc(N)n1 (stereo not drawn) [Example 22, 7-[2-methoxyimino-2-(2-aminothiazol-4-yl)acetamido]-3-[2-(4-chlorothiazol-5-yl)vinyl]-3-cephem-4-carboxylic acid (syn-isomer, cis-isomer) pivaloyloxymethyl ester]
20% | CO/N=C(\C(=O)NC1C(=O)N2C(C(=O)OCOC(=O)C(C)(C)C)=C(/C=C\c3cncs3)CSC12)c1csc(N)n1 (stereo not drawn) [Example 38, 7-[2-methoxyimino-2-(2-aminothiazol-4-yl)acetamido]-3-[2-(thiazol-5-yl)vinyl]-3-cephem-4-carboxylic acid (syn-isomer, cis-isomer) pivaloyloxymethyl ester]
